Assay results published in patent publication US20240197664A1, “SIRTUIN OR KLOTHO ACTIVATOR OR EXPRESSION ENHANCER, NAD+ INCREASING AGENT, AND SENOLYTIC AGENT” (WAKUNAGA PHARMACEUTICAL CO., LTD., priority 2021, published 2024).

Key:
[1] = system: SIRT1 gene; assay: Enhancement of SIRT1 gene expression in the kidney (in vivo), real-time PCR; set-up: species or system senescence-accelerated mice SAMP8; settings: repeated oral administration for two weeks
Description: (§1) Animals for evaluating the biological activity were bred as follows. Senescence-accelerated mice SAMP8 (male) for testing were purchased from Japan SLC, Inc. After purchase, the animals were acclimatized for one week and used as animals for the evaluation tests.
(§2) After repeated oral administration of the sample prepared in the above (1) (a) to the animals for the evaluation tests in the above (2) for two weeks, kidneys of such animals were excised. The kidneys were crushed using an automatic tissue crusher, and then RNA was extracted using a TRIzol solution manufactured by Thermo Fisher Scientific K.K. cDNA was synthesized using PRIMEScript RT reagent Kit with gEraser manufactured by Takara. The synthesized cDNA was subjected to real-time PCR using KAPA SYBR Fast qPCR kit manufactured by Nippon Genetics Co., Ltd. Results are shown in FIG. 5.

[2] = system: NAD+; assay: NAD+ amount increasing action (in vivo), NAD+/NADH Assay Kit; set-up: species or system senescence-accelerated mice SAMP8; settings: single oral dose (180 minutes later) and mixed with food for one month; cerebral cortices
Description: as §1
A single dose of the sample prepared in (1) (a) was orally administered to animals for the evaluation tests in the above (2), and then cerebral cortices of such animals were excised 180 minutes later. In addition, the sample prepared in the above (1) (a) was mixed with food and fed to animals for the evaluation tests in the above (2) for one month, and then cerebral cortices of such animals were excised. The NAD^+ amount in the cerebral cortices was measured using NAD^+/NADH Assay Kit manufactured by Dojindo Laboratories.

[3] = system: senescence-accelerated mice SAMP8; assay: Cognitive/memory retention action (in vivo), passive avoidance test; settings: mixed with food for four months, holding trial after two months
Description: as §1
The sample prepared in the above (1) (a) was mixed with food and fed to animals for evaluation test in the above (2) for four months, and then a passive avoidance test was performed. The passive avoidance test is a test utilizing a habit that a mouse prefers a dark place, and on Day 1, a mouse already in a bright room was moved to a dark room while receiving an electrical shock (50 V/1 second), and the time it took for the mouse to enter the dark room was taken as response latency of an acquisition trial. After two months, the mouse was put in the bright room again and the time it took to move to the dark room (the response latency of a holding trial) was used as an index of memory.

[4] = system: kidney injury molecule (KIM-1); assay: Inhibitory action on kidney injuries (in vivo), KIM-1 Western Blotting; set-up: species or system senescence-accelerated mice SAMP8; settings: repeated oral administration for two weeks
Description: as §1
(§3) After repeated oral administration of the sample prepared in the above (1) (a) to the animals for the evaluation tests in the above (2) for two weeks, kidneys of such animals were excised. After the kidneys were crushed using an automatic tissue crusher, the cells were lysed with an RIPA cell lysis buffer manufactured by Millipore Corporation which was diluted 10-fold with purified water added with a protease inhibitor and a phosphatase inhibitor manufactured by Roche and then centrifuged (10,000 rpm, 10 min, 4° C.), and the supernatant was used as a cell extract. The cell extract was used for analysis by Western Blotting according to a conventional method. A kidney injury molecule (KIM-1) antibody (manufactured by R&D System) and a lipocalin-2 (NGAL) antibody (manufactured by Proteintech Group, Inc.), KIM-1 and NGAL being markers of kidney injuries, and an anti-GAPDH antibody (manufactured by Fujifilm Wako Pure Chemical Corporation) were used as antibodies.

[5] = system: p53 protein; assay: Suppression of cellular senescence marker p53 protein in the hippocampus (in vivo), Western Blotting; set-up: species or system senescence-accelerated mice SAMP8; settings: repeated oral administration for six weeks
Description: as §1
(§4) After repeated oral administration of the sample prepared in the above (1) (a) to animals for the evaluation tests in the above (2) for six weeks, hippocampi of such animals were excised. After the hippocampi were crushed using an automatic tissue crusher, the cells were lysed with a RIPA cell lysis buffer manufactured by Millipore Corporation which was diluted 10-fold with purified water added with a protease inhibitor and a phosphatase inhibitor manufactured by Roche, and then centrifuged (10,000 rpm, 10 min, 4° C.), and the supernatant was used as a cell extract. The cell extract was used for analysis by Western Blotting according to a conventional method. An anti-p53 antibody (manufactured by Proteintech Group, Inc.) and an anti-β-actin antibody (manufactured by Medical and Biological Laboratories Co., Ltd.) were used as antibodies.

[6] = system: lipocalin-2 (NGAL); assay: Inhibitory action on kidney injuries (in vivo), NGAL Western Blotting; set-up: species or system senescence-accelerated mice SAMP8; settings: repeated oral administration for two weeks
Description: as §1, §3

[7] = system: p16 gene; assay: Suppression of senescent cell marker p16 gene expression in the kidney (in vivo), real-time PCR; set-up: species or system senescence-accelerated mice SAMP8; settings: repeated oral administration for two weeks
Description: as §1
(§5) After repeated oral administration of the sample prepared in the above (1) (a) to the animals for the evaluation tests in the above (2) for two weeks, kidneys of such animals were excised. The kidneys were crushed using an automatic tissue crusher, and then RNA was extracted using a TRIzol solution manufactured by Thermo Fisher Scientific K.K.
(§6) CDNA was synthesized using PRIMEScript RT reagent Kit with gEraser manufactured by Takara. The synthesized cDNA was subjected to real-time PCR using KAPA SYBR Fast qPCR kit manufactured by Nippon Genetics Co., Ltd. Results are shown in FIG. 6.

[8] = system: p21 gene; assay: Suppression of senescent cell marker p21 gene expression in the kidney (in vivo), real-time PCR; set-up: species or system senescence-accelerated mice SAMP8; settings: repeated oral administration for two weeks
Description: as §1, §5, §6

[9] = system: SIRT1 protein; assay: SIRT1 protein increasing action (in vivo), Western Blotting of hippocampus; set-up: species or system senescence-accelerated mice SAMP8; settings: repeated oral administration for two weeks
Description: as §1
as §4, with “two” for “six”, “combined protease/phosphatase inhibitors” for “a protease inhibitor and a phosphatase inhibitor”, “Thermo Fisher Scientific K.K.,” for “Roche,”, “anti-SIRT1” for “anti-p53”, “Biolegend)” for “Proteintech Group, Inc.)”, “Fujifilm Wako Pure Chemical Corporation)” for “Medical and Biological Laboratories Co., Ltd.)”

[10] = biological target: T1, SIRT1 (Mus musculus, UniProt Q923E4); assay: SIRT1 activation action (in vivo), SIRT1_GLO kit on cerebral cortex lysate; set-up: species or system senescence-accelerated mice SAMP8; settings: single oral dose, 180 minutes after administration, vs control group
T1 construct: from tissue; host or cells: cerebral cortex of SAMP8 mice
T1 sequence (Q923E4 1-737): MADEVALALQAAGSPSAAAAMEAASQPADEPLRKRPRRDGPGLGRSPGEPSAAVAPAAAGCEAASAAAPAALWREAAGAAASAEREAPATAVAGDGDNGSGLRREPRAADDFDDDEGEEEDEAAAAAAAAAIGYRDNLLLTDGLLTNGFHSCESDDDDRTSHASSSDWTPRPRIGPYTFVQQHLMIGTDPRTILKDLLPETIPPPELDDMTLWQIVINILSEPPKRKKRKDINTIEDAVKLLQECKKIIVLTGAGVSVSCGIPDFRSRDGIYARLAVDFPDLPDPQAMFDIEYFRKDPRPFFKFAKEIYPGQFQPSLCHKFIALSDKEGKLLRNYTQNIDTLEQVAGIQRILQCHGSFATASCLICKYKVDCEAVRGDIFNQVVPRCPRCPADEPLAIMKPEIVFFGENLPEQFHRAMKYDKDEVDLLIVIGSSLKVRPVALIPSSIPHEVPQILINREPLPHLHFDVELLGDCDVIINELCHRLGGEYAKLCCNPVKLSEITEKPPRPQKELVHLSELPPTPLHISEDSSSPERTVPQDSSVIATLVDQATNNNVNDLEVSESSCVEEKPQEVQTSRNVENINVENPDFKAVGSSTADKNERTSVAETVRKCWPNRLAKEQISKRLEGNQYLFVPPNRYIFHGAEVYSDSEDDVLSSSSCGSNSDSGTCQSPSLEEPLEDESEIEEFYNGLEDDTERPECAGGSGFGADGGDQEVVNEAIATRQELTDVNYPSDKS
Description: as §1
A SIRT1_GLO kit manufactured by Promega Corporation was purchased to measure the sirtuins activity. A lysate of the cerebral cortex was placed in a 96-well plate, various reaction reagents were added, and then luminous intensity of luciferase was measured by a plate reader.
A single dose of the sample prepared in the above (1) (a) was orally administrated to animals for the evaluation tests in the above (2), and then cerebral cortices of such animals were extracted 15, 30, 60, and 180 minutes later. The cerebral cortices were crushed using an automatic tissue crusher and lysed by adding a cell dissolution liquid. Centrifugation was performed and the sirtuins activity in the supernatant thereof was measured.

[11] = system: Klotho gene; assay: Enhancement of Klotho gene expression in the kidney (in vivo), real-time PCR; set-up: species or system senescence-accelerated mice SAMP8; settings: repeated oral administration for two weeks
Description: as §1, §2

- Sirtuin activity in cerebral cortex [10]: increased
SMILES: CC=CSCC(N)C(=O)O (centres unmarked) [S-1-propenylcysteine]
- expression of SIRT1 gene in the kidney [1]: increased
- NAD+ amount [2]: increased
- aging-related decline in cognitive and memory functions (response latency of holding trial) [3]: ameliorated
- KIM-1 protein mass in the kidney [4]: reduced
- p53 protein mass in the hippocampus [5]: reduced
- NGAL protein mass in the kidney [6]: reduced
- cells expressing p16 gene in the kidneys [7]: reduced
- cells expressing p21 gene in the kidneys [8]: reduced
- SIRT1 protein mass in the hippocampus [9]: increased
- expression of Klotho gene in the kidney [11]: increased
